From patent publication US9668967B2, “Lipid formulations comprising a thiolated antioxidant” (CAMURUS AB, priority 2008, dated 2017) come the findings set out here.

A short description of series [1]: Exploratory stability study of glucagon lipid formulations, 25° C./60% RH for 7 days (NP HPLC). It counts as physicochemical. Particulars: for assayed GLU content as % of initial (time zero) GLU content (FIG. 3): antioxidant 0.3 wt % (BHT 0.1 wt %), compared with antioxidant-free control. Here is the method: To prevent breakdown of glucagon resulting from oxidation of the methionine residue (giving Met(O)27glucagon), an antioxidant may be included in the compositions of the present invention. To establish the most suitable antioxidant, various common and less common antioxidants were tested in the peptide/lipid system of the present invention.
Note that the antioxidant content in the respective formulations, except for the reference formulations (#229 and #234), was 0.3 wt % for tocopherol (α-TOC), acsorbyl palmitate (AscPalm) and mono-thioglycerol (MTG) and 0.1 wt % for butyl hydroxytoluene (BHT). Samples containing MTG were #233 and 235.
In FIG. 3, the assayed GLU content after storage at 25° C./60% RH for 7 days is plotted as the % of initial (time zero) GLU content.
Because the assay is based on a normal phase (NP) HPLC column, degradation products with RR<1 are more hydrophobic compared with GLU whereas more hydrophilic degradation products give RR>1.

Series [2] in a line: Hydrogen peroxide stress test of buprenorphine lipid formulations (HPLC). The series is classed as physicochemical. Here is the method: Lipid formulations of BUP also containing antioxidant were prepared in the following way: First, a liquid lipid stock solution of SPC/GDO/EtOH/antioxidant (or a reference stock solution without antioxidant) in the required proportions were prepared by weighing of all components into glass vials followed by mixing by end-over-end rotation for about 8 h or until completely homogenous liquids were obtained. Thereafter, BUP (powder) was added to achieve a nominal concentration of 7.9 wt % in all cases. The antioxidants were added in an amount corresponding to common previous use in pharmaceutical products.
The following stress test was performed to evaluate the effect of the four different antioxidants (Table 1): Oxidative degradation was induced by adding 20 μL, H2O2 (30%)/mL formulation followed by equilibration of the formulations for 48 hours at RT (dark). Analysis of BUP and any oxidation degradation product (DP) in the formulations was performed by HPLC (reversed phase column) with UV detection at 288 nm.
The protective effect of different MTG concentrations was assessed by performing a stress test according to Example 1. […] The formulations were thereafter analysed by HPLC as described in Example 1 and the relative area % of the main oxidation degradation product (DP) peak (relative retention RR=1.053) was determined.

Where [3] appears, read: storage at 25° C./60% RH for 7 days.

In the case of `CCCCCCCCCCCCCCCC(=O)OC[C@H](O)[C@H]1OC(=O)C(O)=C1O` [AscPalm, acsorbyl palmitate, reference compound], in series [1] (setting [3]), the “assayed GLU content as % of initial (time zero) GLU content (FIG. 3)” value is “degrading of glucagon”.

On to `OCC(O)CS` (stereo not drawn) [MTG, Mono-thioglycerol], for which the “suppressing the oxidative degradation of glucagon” value in series [1] (compared with other lipid soluble antioxidants) is recorded as “more efficient than other lipid soluble antioxidants”. Further, in series [1] (setting [3]), the “formation of Met(O)27glucagon (degradation products with RR>1, % Total Area, FIG. 4)” value is listed as “most efficient” and the “assayed GLU content as % of initial (time zero) GLU content (FIG. 3)” value was “best oxidation protection”. In addition, in series [2] (H2O2 treated formulations, Table 2), the “protecting BUP from oxidation degradation in the lipid formulation, compared with reference formulation” value is “clearly superior”. In addition, in series [2] (MTG 0-1.0 wt % in BUP/SPC/GDO/EtOH=7.9/41.1/41.1/10.0 wt %, H2O2, 48 hours at RT (dark)), the “protective effect of different MTG concentrations on main oxidation DP (FIG. 1)” value is given as “significant protective effect”.
